Reference: the supplement of paper PMC8967900

Key:
Assay in all cases: selective drug sensitivity score (sDSS, relative to normal bone marrow) (sDSS (score)); higher = more potent and effective on the cell line relative to normal bone marrow cells
Conditions in all cases: 72 h
KASUMI-10 = system: KASUMI-10
380 = system: 380
MN-60 = system: MN-60
SUP-B15 = system: SUP-B15
CCRF-HSB2 = system: CCRF-HSB2
COG-LL-319h = system: COG-LL-319h
PEER = system: PEER
KASUMI-9 = system: KASUMI-9
MHH-CALL-2 = system: MHH-CALL-2
MOLT-4 = system: MOLT-4
COG-LL-394h = system: COG-LL-394h
NALM-16 = system: NALM-16
COG-LL-402h = system: COG-LL-402h
REH = system: REH
COG-LL-332h = system: COG-LL-332h
HPB-ALL = system: HPB-ALL
697 = system: 697
DND-41 = system: DND-41
TMD5 = system: TMD5
P12-ICHIKAWA = system: P12-ICHIKAWA
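Further: ALL cell lines in 384-well plates, five doses spanning 10,000-fold, each plate scaled between vehicle and 100 µmol/L benzalkonium chloride controls, sDSS an adapted area-under-curve metric.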

| Structure (SMILES) | selective drug sensitivity score (KASUMI-10) | selective drug sensitivity score 380 | selective drug sensitivity score (MN-60) | selective drug sensitivity score (SUP-B15) | selective drug sensitivity score (CCRF-HSB2) | selective drug sensitivity score (COG-LL-319h) | selective drug sensitivity score (PEER) | selective drug sensitivity score (KASUMI-9) | selective drug sensitivity score (MHH-CALL-2) | selective drug sensitivity score (MOLT-4) | selective drug sensitivity score (COG-LL-394h) | selective drug sensitivity score (NALM-16) | selective drug sensitivity score (COG-LL-402h) | selective drug sensitivity score (REH) | selective drug sensitivity score (COG-LL-332h) | selective drug sensitivity score (HPB-ALL) | selective drug sensitivity score 697 | selective drug sensitivity score (DND-41) | selective drug sensitivity score (TMD5) | selective drug sensitivity score (P12-ICHIKAWA) |
| --- | --- | --- | --- | --- | --- | --- | --- | --- | --- | --- | --- | --- | --- | --- | --- | --- | --- | --- | --- | --- |
| CN1CC[C@H](c2c(O)cc(O)c3c(=O)cc(-c4ccccc4Cl)oc23)[C@H](O)C1 [Alvocidib] (top concentration 10000 nM) | -2.9 | -4.3 | -3.9 | 0.1 | 2.2 | -2.7 | -2.1 | -0.7 | -3.5 | -2.5 | -2.5 | -3.6 | -2.1 | -2 | -0.3 | -3.1 | 1.3 | -4.1 | -5.7 | -2.1 |
| CC(C)c1c(C(=O)Nc2ccccc2)c(-c2ccccc2)c(-c2ccc(F)cc2)n1CC[C@@H](O)C[C@@H](O)CC(=O)O [Atorvastatin] (top concentration 10000 nM) | -1.8 | -3 | -2.5 | 0.8 | -2.1 | -1 | 2 | -3.7 | 0 | -2.1 | -1.2 | -3.7 | -1.8 | 1 | 1.2 | -1.5 | -2.4 | 1.9 | -1.6 | 0.7 |
| Nc1ncn([C@@H]2O[C@H](CO)[C@@H](O)[C@H]2O)c(=O)n1 [Azacitidine] (top concentration 10000 nM) | 3.64 | 5.44 | 0.84 | 11.6 | -0.56 | 7.84 | 6.64 | 5.14 | 5.84 | 4.94 | -2.26 | 1.84 | 1.74 | 9.44 | 3.64 | 7.94 | 10.9 | 2.14 | -2.26 | 3.74 |
| Cc1cc(-c2nc(-c3ccc(OC(F)(F)F)cc3)no2)nn1Cc1ccnc(N2CCN(C3CC3)CC2)c1 [BAY_87-2243] (top concentration 1000 nM) | -6.66 | -8.66 | 25.6 | 14.1 | 14.9 | 2.54 | 27.4 | 5.24 | 8.64 | 25.1 | 23.5 | 4.24 | -3.16 | 17.1 | 5.54 | 8.54 | 18.7 | 6.84 | -1.16 | 23.9 |
| O=C(Nc1cccc(Nc2ncc(Br)c(NCCc3cnc[nH]3)n2)c1)N1CCCC1 [BX-912] (top concentration 10000 nM) | 12.8 | 8.26 | -1.44 | 11.9 | 9.66 | 12.7 | 10.6 | 10.5 | 2.86 | 6.56 | -2.24 | -0.14 | 6.16 | 7.96 | 7.56 | -0.34 | 10.4 | 2.56 | 2.06 | 10.2 |
| C=C(c1ccc(C(=O)O)cc1)c1cc2c(cc1C)C(C)(C)CCC2(C)C [Bexarotene] (top concentration 10000 nM) | -1.9 | 24 | -5.3 | -4.8 | -0.9 | -5.3 | -3.8 | -3.4 | 3.5 | 2.2 | -5.3 | -4.1 | -5.3 | -3.8 | -1.7 | -5.1 | -2.7 | -5.3 | 0.1 | -0.5 |
| Cn1cnc2c(F)c(Nc3ccc(Br)cc3F)c(C(=O)NOCCO)cc21 [Binimetinib] (top concentration 1000 nM) | 0.28 | 1.58 | -2.22 | 11.2 | -0.32 | 2.98 | 0.58 | -0.92 | 5.28 | -2.02 | 0.48 | -0.12 | 3.88 | 4.48 | -2.22 | -2.22 | -1.62 | -2.22 | 2.38 | -0.42 |
| COc1cc(N2CCC(N3CCN(C)CC3)CC2)ccc1Nc1ncc(Cl)c(Nc2ccccc2P(C)(C)=O)n1 [Brigatinib] (top concentration 1000 nM) | 4.76 | -3.34 | -2.54 | -3.34 | -1.14 | 3.26 | -3.34 | 3.56 | 7.66 | 0.36 | -1.84 | -3.14 | -2.04 | -3.34 | -3.34 | 3.06 | -1.84 | 7.16 | -2.04 | -3.34 |
